Type in all cases: functional
Experiment [1] has as its system HCT-116. As to the kind of experiment: Cell cycle arrest in human HCT-116 cells assessed as accumulation of cells at G2-M phase by flow cytometry (reference value: 14.41%).
The subject of experiment [2] is HCT-116. As to the kind of experiment: Cell cycle arrest in human HCT-116 cells assessed as accumulation of cells at G0-G1 phase by flow cytometry (reference value: 46.33%).
Experiment [3] deals with HCT-116. Description: Induction of apoptosis in human HCT-116 cells assessed as early apoptotic cells measured after 24 hrs by PI based flow cytometry (reference value: 0.43%).
The subject of experiment [4] is HCT-116. As to the kind of experiment: Induction of apoptosis in human HCT-116 cells assessed as necrotic apoptotic cells measured after 24 hrs by PI based flow cytometry (reference value: 1.84%).
For experiment [5], the system named is HCT-116. As to the kind of experiment: Cell cycle arrest in human HCT-116 cells assessed as accumulation of cells at S phase by flow cytometry (reference value: 39.26%).
Experiment [6] concerns HCT-116. Description: Induction of apoptosis in human HCT-116 cells assessed as late apoptotic cells measured after 24 hrs by PI based flow cytometry (reference value: […]).
Experiment [7] relates to HCT-116. As to the kind of experiment: Induction of apoptosis in human HCT-116 cells assessed as total apoptotic cells measured after 24 hrs by PI based flow cytometry (reference value: 2.38%).

These results are taken from ChEMBL document CHEMBL6177958, “6,7-Dimethoxy-2-methyl-4-substituted quinazolines: Design, synthesis, EGFR inhibitory activity, in vitro cytotoxicity, and in silico studies” (Eur J Med Chem, 2025).

Turning to `COc1cc2nc(C)nc(N/N=C/c3cc(CN4CCN(C)CC4)c(O)c(OC)c3)c2cc1OC`, the Activity was determined as 8.71% in the experiment with HCT-116 [1]; 42.18% in the experiment on HCT-116 [2]; 26.13% in the experiment with HCT-116 [3]; 2.48% in the experiment with HCT-116 [4]; 49.11% with HCT-116 [5]; 11.27% with HCT-116 [6]. Further, the Activity in the experiment with HCT-116 [7] was 39.88%.
